Results from PMC11882969 (Nature Communications, 2025).
Values joined by “and” are separate entries in the source; they are usually repeats but may differ in a detail not shown here. Equal entries are not always repeated. Where two headings read alike, the source gives them in different places.

What was measured:
P-gp (human MDR1) = test: in vitro; conditions: dog, MDCK-MDR1, pH 7.4
CB1R = test: Bimane fluorescence of labeled CB1R; type: biochemical, human; conditions: 10 μM ligand; apo 459 nm
Procedure: A minimal cysteine version of CB1R was generated[85] where all the cysteine residues (except C256 and C264) were mutated to alanine. […] Excess label was removed using size exclusion chromatography on a Superdex 200 10/300 Increase column in 20 mM HEPES pH 7.5, 100 mM NaCl and 0.01% MNG/0.001% CHS. Bimane-labeled CB1R at […] was incubated with ligands (10 μM) for one hour at room temperature. Fluorescence data was collected at room temperature in a 150 μL cuvette with a FluorEssence v3.8 software on a Fluorolog instrument (Horiba) in photon-counting mode. Bimane fluorescence was measured by excitation at 370 nm with excitation and emission bandwidth passes of 4 nm. The emission spectra were recorded from 410 to 510 nm with 1 nm increment and 0.1 s integration time.

[1] = target: T1, CB1R with G protein (Gi1-3, Go) (Homo sapiens, UniProt P21554); test: GTP turnover assay (GTPase-Glo); type: biochemical; conditions: replicates, sheet FigS3c
T1 construct: a N-terminal FLAG tag and C-terminal histidine tag was added to human full-length CB1; FLAG (N); histidine tag (C); made in house; host or cells: CB1R: Spodoptera frugiperda Sf9; G proteins: Trichoplusia ni Hi5
Procedure: Analysis of GTP turnover was performed by using a modified protocol of the GTPase-Glo^TM assay (Promega) described previously. Ligand-bound (10 μM ligand incubated for one hour at room temperature) or apo CB1R (1 μM) was mixed with G protein (1 μM) in 20 mM HEPES, pH 7.5, 50 mM NaCl, 0.01% L-MNG/0.001% CHS, 100 μM TCEP, 10 μM GDP and 10 μM GTP and incubated at room temperature. GTPase-Glo-reagent was added to the sample after incubation for 60 min (Gi1-3) and 20 min for (Go). Luminescence was measured after the addition of detection reagent and incubation for 10 min at room temperature using a SpectraMax Paradigm plate reader.

[2] = pH 7.4, kinetic, 2% DMSO, 25 °C
[3] = for Stability time course, Mean (FS10f): relative to 100 at 0 min
in vitro [4] = conditions: mouse, microsomes, pH 7.4
[5] = mouse plasma, 1.0 µM
in vitro [6] = conditions: mouse, pH 7.4

T1 sequence (P21554 whole entry): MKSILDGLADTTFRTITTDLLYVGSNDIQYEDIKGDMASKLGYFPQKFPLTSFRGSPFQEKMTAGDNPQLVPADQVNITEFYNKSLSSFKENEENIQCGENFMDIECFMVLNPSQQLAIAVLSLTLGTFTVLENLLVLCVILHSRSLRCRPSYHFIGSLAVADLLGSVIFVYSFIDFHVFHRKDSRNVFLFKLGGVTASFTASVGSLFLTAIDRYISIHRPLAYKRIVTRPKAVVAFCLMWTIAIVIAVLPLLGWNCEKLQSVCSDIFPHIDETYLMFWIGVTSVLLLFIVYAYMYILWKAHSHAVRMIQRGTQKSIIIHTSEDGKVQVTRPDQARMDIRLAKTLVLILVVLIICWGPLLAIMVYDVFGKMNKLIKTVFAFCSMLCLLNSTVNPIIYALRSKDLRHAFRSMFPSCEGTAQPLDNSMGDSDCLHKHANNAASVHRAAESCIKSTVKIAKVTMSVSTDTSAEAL

For `C[C@H]1O[C@@H](O[C@H]2[C@@H](O)C[C@H](O[C@H]3[C@@H](O)C[C@H](O[C@H]4CC[C@@]5(C)[C@H](CC[C@@H]6[C@@H]5C[C@@H](O)[C@]5(C)[C@@H](C7=CC(=O)OC7)CC[C@]65O)C4)O[C@@H]3C)O[C@@H]2C)C[C@H](O)[C@@H]1O` [Digoxin], the efflux ratio at 90 min, 10 μM (P-gp (human MDR1)) was 7.3.
In the case of `COC(=O)[C@@H](NC(=O)c1nn(Cc2ccc(F)cc2)c2ccccc12)C(C)(C)C` [MDMB-Fub, MDMB-Fubinaca, reference compound], the “bimane spectrum λmax” value (CB1R) is reported as 465 nm, the “GTP turnover, normalised (FUB about 100)” value ([1]; Gi2) is reported as 98.933 and 99.3172 and 100.642 and 101.735 and 100.511 and 98.862 and the “GTP turnover, normalised (FUB about 100)” value ([1]; Gi3) is reported as 98.4729 and 99.2586 and 100.386 and 101.71 and 99.9413 and 100.231. For the same compound, the “GTP turnover, normalised (FUB about 100)” value ([1]; Goa) was 94.5882 and 101.149 and 98.4211 and 105.861 and 100.202 and 99.77 and the “GTP turnover, normalised (FUB about 100)” value ([1]; first block, G protein not printed (Gi2, Gi3, Goa follow)) was 100.725 and 100.983 and 100.099 and 103.208 and 97.7953 and 97.1894.
With `Cc1nccn1CC1CCc2c(c3ccccc3n2C)C1=O` (stereo not shown) [Ondansetron] the “PBS solubility, Mean” value [2] was 120 µM.
With `CC(C)NCC(O)COc1cccc2ccccc12` (stereo not shown) [Propranolol] the “Stability time course, Mean (FS10f)” value ([3]; Time 0 min) was 100, the “Stability time course, Mean (FS10f)” value ([3]; Time 7 min) was 46.9307 and the “Stability time course, Mean (FS10f)” value ([3]; Time 15 min) was 32.0792. The “Stability time course, Mean (FS10f)” value ([3]; Time 25 min) was 24.5545, the “Stability time course, Mean (FS10f)” value ([3]; Time 40 min) was 16.6997 and the “Mean % Remaining” value ([3]; mouse microsomes, 15 min) was 32%. For the same compound, the remaining at 40 min, 2 µM (in vitro [4]) was 106%.
For `COc1ccc(CCN(C)CCCC(C#N)(c2ccc(OC)c(OC)c2)C(C)C)cc1OC` (stereo not shown) [Verapamil, reference compound], the “Mean % of bound compound” value [5] was 88% and the recovery at 5 h, 1 μM (in vitro [6]) was 91%.
